US20240101600A1, “FIBROBLAST GROWTH FACTOR RECEPTOR (FGFR)-TARGETING ANTAGONISTIC SHORT PEPTIDE” (WENZHOU MEDICAL UNIVERSITY, priority 2019, published 2024)
Where no end group is shown, it is not given here.

Columns and labels:
[1] = molecular target: FGFR3B (Homo sapiens, UniProt P22607); test: SPR detection of interaction with FGFR3B; type: binding
[2] = molecular target: T1, FGFR1C (Homo sapiens, UniProt P11362); test: SPR detection of interaction with FGFR1C; type: binding
T1 sequence (P11362 22-376 limits assumed): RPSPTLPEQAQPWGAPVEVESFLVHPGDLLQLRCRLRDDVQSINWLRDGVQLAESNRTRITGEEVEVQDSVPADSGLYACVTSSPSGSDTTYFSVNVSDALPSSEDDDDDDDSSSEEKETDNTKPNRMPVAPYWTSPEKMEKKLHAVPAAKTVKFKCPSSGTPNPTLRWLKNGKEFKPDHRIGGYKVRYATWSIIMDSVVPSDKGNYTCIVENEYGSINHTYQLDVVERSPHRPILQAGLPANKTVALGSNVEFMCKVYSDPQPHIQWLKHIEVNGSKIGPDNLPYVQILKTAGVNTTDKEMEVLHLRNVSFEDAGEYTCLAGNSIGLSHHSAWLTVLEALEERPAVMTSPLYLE
Method: Amino acid sequence of P9 degraded short peptide P48 was analyzed using Amber11 program. An initial structure of the P9 and P48 peptide chains was constructed using a sequence command in a Tleap module of the Amber11 program. Hydrogen atoms were added using the Tleap module of the Amber11 program, a […] TIP3P solvent box was added at a distance of 10 Å from the peptide chain, and counter ions were added to the two systems to keep the system electrically neutral. The system was subjected to 20-ns NPT system simulation to obtain an optimal spatial structure. […] The last 1 ns of trajectory obtained by molecular dynamics simulation of the system was selected to calculate the binding free energy, the molecules of the solvent of water and counter ion were deleted, and conformation was recorded every 10 ps to obtain a total of 101 structures. The binding free energy between FGF2 and FGFR1 were calculated by a molecular mechanics-generalized born surface area (MM-GBSA) method. The binding free energy and energy decomposition of amino acid residues were calculated using an MMPBA.py script provided by the Amber11. […] After bFGF and FGFR1 flew into the sensor chip, P48 (50 μM, 100 μM, 200 μM, 300 μM and 400 μM) was injected into a sensor surface, and the obtained data was analyzed using BIAevaluation software. […]

[3] = molecular target: FGFR1 (Mus musculus, UniProt P16092); test: Western blot of bFGF-induced FGFR1 activation in Balb/c 3T3 fibroblasts; type: cell-based; set-up: endogenous in cells; host or cells: MEF-WT; Balb/c 3T3; settings: P48 pretreatment 10 min, bFGF 15 min
Sequence of FGFR1 (Mus musculus, UniProt P16092) (P16092 22-822): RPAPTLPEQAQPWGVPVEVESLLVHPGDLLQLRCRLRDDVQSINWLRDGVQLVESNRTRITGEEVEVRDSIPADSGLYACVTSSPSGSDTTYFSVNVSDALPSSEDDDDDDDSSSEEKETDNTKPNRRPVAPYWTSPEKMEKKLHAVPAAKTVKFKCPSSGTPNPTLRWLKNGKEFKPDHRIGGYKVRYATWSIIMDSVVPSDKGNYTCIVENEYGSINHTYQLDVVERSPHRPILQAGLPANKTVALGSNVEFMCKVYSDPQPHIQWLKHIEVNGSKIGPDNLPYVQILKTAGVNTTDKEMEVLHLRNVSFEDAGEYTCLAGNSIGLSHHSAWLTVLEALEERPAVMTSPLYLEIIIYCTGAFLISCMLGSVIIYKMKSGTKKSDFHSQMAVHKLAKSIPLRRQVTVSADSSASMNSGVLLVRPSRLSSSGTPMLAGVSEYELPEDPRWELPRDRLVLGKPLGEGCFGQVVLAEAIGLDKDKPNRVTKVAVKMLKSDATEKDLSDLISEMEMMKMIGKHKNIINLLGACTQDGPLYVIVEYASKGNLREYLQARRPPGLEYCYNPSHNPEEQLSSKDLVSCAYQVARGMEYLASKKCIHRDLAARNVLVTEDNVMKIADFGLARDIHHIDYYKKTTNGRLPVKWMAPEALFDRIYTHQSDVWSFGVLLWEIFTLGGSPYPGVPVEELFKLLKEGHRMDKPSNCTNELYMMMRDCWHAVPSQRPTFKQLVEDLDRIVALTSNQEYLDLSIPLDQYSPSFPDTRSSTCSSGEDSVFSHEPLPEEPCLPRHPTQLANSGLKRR
Method: (§1) Human embryonic kidney cells HEK-293, fibroblasts MEF-WT and Balb/c 3T3 were inoculated into 6-well plates, respectively. After growing adherently overnight, the cells were pretreated with P48 for 10 min or with AZD4547/PD173074/SSR for 2 h, and incubated with bFGF for 15 min. […] The experimental procedure was as follows: MEF-WT and MEFKO (FGFR1-FGFR2-FRS2a) cells (1×10^6 cells/ml) were inoculated in a 35 mm petri dish. After being adhered to the wall of petri dish overnight, the cells were washed with PBS; FITC-conjugated P48 (1, 10, 100 and 1000 nM) was added, and the cells were incubated in an incubator for 30 min. The cells were immobilized with 1% paraformaldehyde in the dark and washed with PBS. An expression level of the FITC was measured at a fluorescence channel 1 (FL-1) (530 nm), with an excitation wavelength of 488 nm. Data analysis was conducted using CellQuest software (Becton Dickinson).

[4] = molecular target: T2, FGFR1 (Homo sapiens, UniProt P11362); test: Flow cytometry binding of P48 to FGFR1 in SGC-7901 cells; type: cell-based; set-up: endogenous in cells; host or cells: Hela229; NCI-H460; SGC-7901; MGC-803
T2 sequence (P11362 22-822): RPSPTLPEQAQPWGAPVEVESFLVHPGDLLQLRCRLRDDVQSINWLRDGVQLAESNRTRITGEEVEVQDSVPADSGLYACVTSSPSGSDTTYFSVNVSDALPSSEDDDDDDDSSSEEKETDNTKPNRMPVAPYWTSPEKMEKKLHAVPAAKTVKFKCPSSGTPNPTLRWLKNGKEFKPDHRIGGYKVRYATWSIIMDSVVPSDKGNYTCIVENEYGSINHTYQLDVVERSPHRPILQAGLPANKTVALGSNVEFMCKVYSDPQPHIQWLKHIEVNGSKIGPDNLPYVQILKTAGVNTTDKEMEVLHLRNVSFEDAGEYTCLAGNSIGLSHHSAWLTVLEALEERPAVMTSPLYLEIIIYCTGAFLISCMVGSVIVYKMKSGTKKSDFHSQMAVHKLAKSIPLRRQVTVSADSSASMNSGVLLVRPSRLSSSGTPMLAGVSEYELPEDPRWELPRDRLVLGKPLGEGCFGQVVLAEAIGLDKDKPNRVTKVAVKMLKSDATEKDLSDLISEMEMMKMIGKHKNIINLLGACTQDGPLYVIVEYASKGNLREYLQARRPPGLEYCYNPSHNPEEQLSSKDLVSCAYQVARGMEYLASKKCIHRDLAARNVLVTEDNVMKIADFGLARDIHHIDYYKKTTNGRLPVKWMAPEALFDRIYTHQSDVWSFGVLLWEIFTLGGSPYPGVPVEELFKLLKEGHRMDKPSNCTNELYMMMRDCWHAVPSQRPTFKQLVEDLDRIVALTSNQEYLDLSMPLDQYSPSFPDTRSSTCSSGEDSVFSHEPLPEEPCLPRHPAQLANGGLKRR
Method: as §1
Cervical cancer cells Hela229, melanoma B16-F10, lung cancer cells NCI-H460, gastric cancer cells SGC-7901 and MGC-803 were inoculated into 6-well plates, respectively. After growing adherently overnight, the cells were pretreated with P48 for 10 min or with AZD4547/SSR for 2 h, and incubated with bFGF for 15 min or with KGF for 20 min.

[5] = molecular target: T2, FGFR1; test: Western blot of bFGF-induced FGFR1 activation in HEK-293 cells; type: cell-based; set-up: endogenous in cells; host or cells: HEK-293; settings: P48 pretreatment 10 min, bFGF 15 min
Method: as §1

Sequence of FGFR3B (P22607 23-808 isoform P22607-2 limits assumed): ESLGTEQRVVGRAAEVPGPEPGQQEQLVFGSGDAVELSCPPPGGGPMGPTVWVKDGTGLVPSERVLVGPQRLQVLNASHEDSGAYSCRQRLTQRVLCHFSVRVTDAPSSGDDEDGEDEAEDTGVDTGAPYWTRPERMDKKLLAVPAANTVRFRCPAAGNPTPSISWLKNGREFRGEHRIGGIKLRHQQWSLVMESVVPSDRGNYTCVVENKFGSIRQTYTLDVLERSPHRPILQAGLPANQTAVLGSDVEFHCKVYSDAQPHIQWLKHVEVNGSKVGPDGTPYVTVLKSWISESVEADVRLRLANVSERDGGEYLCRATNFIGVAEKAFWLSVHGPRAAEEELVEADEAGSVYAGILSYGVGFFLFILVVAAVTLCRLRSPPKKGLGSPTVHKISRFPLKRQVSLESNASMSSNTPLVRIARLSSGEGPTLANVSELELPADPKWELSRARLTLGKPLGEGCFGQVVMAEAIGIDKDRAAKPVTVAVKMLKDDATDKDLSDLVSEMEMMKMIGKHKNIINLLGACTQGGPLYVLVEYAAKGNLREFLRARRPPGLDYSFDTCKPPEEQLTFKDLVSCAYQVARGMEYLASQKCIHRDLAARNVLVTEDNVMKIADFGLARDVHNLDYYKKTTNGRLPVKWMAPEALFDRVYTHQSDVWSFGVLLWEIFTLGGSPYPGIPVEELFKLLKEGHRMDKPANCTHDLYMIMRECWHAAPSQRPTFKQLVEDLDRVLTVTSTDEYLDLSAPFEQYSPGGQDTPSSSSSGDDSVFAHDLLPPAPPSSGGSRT

SPPRYPGGGS-NH2 [P48, Ser-Pro-Pro-Arg-Tyr-Pro-Gly-Gly-Gly-Ser-NH2]
binding to FGFR3B [1]: can be bound
binding to FGFR1C [2]: can be bound
rank of binding degree among FGFRs [2]: FGFR1C has the strongest binding degree
inhibition of FGFR1 activation induced by bFGF [3]: can inhibit activation of FGFR1 induced by bFGF in a concentration-dependent manner
binding to the FGFR1 site of the cell membrane surface [4]: desirable binding effect
inhibition of FGFR1 activation induced by bFGF [5]: can inhibit activation of FGFR1 induced by bFGF in a concentration-dependent manner
